# Test results reported in patent publication US8227409B2, “Diketopiperazine microparticles with defined isomer contents” (MannKind Corporation, priority 2009, dated 2012).
# Legend:
# [1] = Laser diffraction of powder emitted from dry powder inhalers: VMGD and container emptying; format: physicochemical; conditions: 56% trans, SSA 55, pressure drop 4 kPa
# From the text: Laser diffraction of dry powder formulations emitted from dry powder inhalers is a common methodology employed to characterize the level of de-agglomeration subjected to a powder. The methodology indicates a measure of geometric size rather than aerodynamic size as occurring in industry standard impaction methodologies. Typically, the geometric size of the emitted powder includes a volumetric distribution characterized by the median particle size, VMGD. Importantly, geometric sizes of the emitted particles are discerned with heightened resolution as compared to the aerodynamic sizes provided by impaction methods. Smaller sizes are preferred and result in greater likelihood of individual particles being delivered to the pulmonary tract. Thus, differences in inhaler de-agglomeration and ultimate performance can be easier to resolve with diffraction. In these experiments, inhalers were tested with laser diffraction at pressures analogous to actual patient inspiratory capacities to determine the effectiveness of the inhalation system to de-agglomerate powder formulations. Specifically, the formulations included cohesive diketopiperazine powders with an active insulin loaded ingredient and without. […] Reported in Table 6 are a VMGD and an efficiency of the container emptying during the testing. FDKP powders have an approximate Carr's index of 50 and TI powder has an approximate Carr's index of 40.
# [2] = Solubility (stated in words); format: physicochemical
structure (smiles),measurement,setting,value
"O=C(O)/C=C/C(=O)NCCCCC1NC(=O)C(CCCCNC(=O)/C=C/C(=O)O)NC1=O (stereo not drawn) [FDKP, 2,5-diketo-3,6-bis(N-fumaryl-4-aminobutyl)piperazine]",% CE,[1]; DPI 2,92.5%
same,VMGD,[1]; DPI 2,6.800 micron
same,% CE,[1]; MedTone,89.5%
same,VMGD,[1]; MedTone,21.200 micron
same,solubility,[2]; at neutral or basic pH,readily soluble
same,solubility,[2]; in acid,low solubility
